This note sets out measurements from patent US20230203043A1, “NOVEL IMIDAZOPYRAZINE DERIVATIVES” (Hoffmann-La Roche Inc., priority 2020, published 2023).

Structures can show the parent of a compound that is named as a salt.

In the first assay the test system is Acinetobacter baumannii ATCC17961. In words: Antimicrobial susceptibility testing: 90% growth inhibitory concentration (IC90) determination in Iso-Sensitest broth, OD600 growth. To be noted: Acinetobacter baumannii, ATCC17961, 16 h, read-out: A. baumannii ATCC 17961 IC90 (uM), strain ATCC 17961, OD600 growth over 16 h. In kind it is cell-based. In short, it runs like this:
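Twofold compound dilutions (e.g. 50 to 0.097 μM final) in Iso-Sensitest broth with ~5×10^(5) CFU/ml, 35±2 °C. OD600 read every 20 min over 16 h; IC90 from growth inhibition during logarithmic phase.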
Usually IC90 stands for the concentration needed for an effect of 90%. For `CCc1cc(Nc2nccn3c(-c4cn(CC#N)nc4C(F)(F)F)cnc23)ccc1C(=O)NCC(=O)N1CCC(CN)C1` (stereo not drawn) [Example 509, N-[2-[3-(aminomethyl)pyrrolidin-1-yl]-2-oxo-ethyl]-4-[[3-[1-(cyanomethyl)-3-(trifluoromethyl)pyrazol-4-yl]imidazo[1,2-a]pyrazin-8-yl]amino]-2-ethyl-benzamide formate], the IC90 is 0.23 µM.

For the compound `CCc1cc(Nc2nccn3c(-c4cn(C)nc4C(F)(F)F)cnc23)ccc1C(=O)NCCNC(=O)[C@@H]1C[C@@](O)(CC)CN1` [Example 446, (2S,4S)-4-ethyl-N-[2-[[2-ethyl-4-[[3-[1-methyl-3-(trifluoromethyl)pyrazol-4-yl]imidazo[1,2-a]pyrazin-8-yl]amino]benzoyl]amino]ethyl]-4-hydroxypyrrolidine-2-carboxamide formate], the 90% effect concentration (IC90) was found to be 2.27 µM.

On to `CCc1cc(Nc2nccn3c(-c4c[nH]nc4C(F)(F)F)cnc23)ccc1C(=O)NCCNC(=O)[C@@H](C)N` [Example 696, (R)-N-(2-(2-aminopropanamido)ethyl)-2-ethyl-4-((3-(3-(trifluoromethyl)-1H-pyrazol-4-yl)imidazo [1,2-a]pyrazin-8-yl)amino)benzamide formate], for which the IC90 was determined as 0.37 µM.

Take `Cc1cc(Nc2nccn3c(-c4cn(CC#N)nc4C(F)(F)F)cnc23)ccc1C(=O)NCC(=O)NCCN` [Example 760, N-[2-(2-aminoethylamino)-2-oxo-ethyl]-4-[[3-[1-(cyanomethyl)-3-(trifluoromethyl)pyrazol-4-yl]imidazo[1,2-a]pyrazin-8-yl]amino]-2-methyl-benzamide formate]: the IC90 came out at 0.718 µM.

Turning to `O=C(NCC1CNC1)N1CCN(C(=O)c2ccc(Nc3nccn4c(-c5c[nH]nc5C(F)(F)F)cnc34)cc2Cl)CC1` [Example 393, N-(azetidin-3-ylmethyl)-4-[2-chloro-4-[[3-[3-(trifluoromethyl)-1H-pyrazol-4-yl]imidazo[1,2-a]pyrazin-8-yl]amino]benzoyl]piperazine-1-carboxamide formate], the IC90 was 0.239 µM.

Consider `CCc1cc(Nc2nccn3c(-c4cn(Cc5nccn5C)nc4C(F)(F)F)cnc23)ccc1C(=O)NCCCNCCCCNCCCN` [Example 84, N-[3-[4-(3-aminopropylamino)butylamino]propyl]-2-ethyl-4-[[3-[1-[(1-methylimidazol-2-yl)methyl]-3-(trifluoromethyl)pyrazol-4-yl]imidazo[1,2-a]pyrazin-8-yl]amino]benzamide hydrochloride], for which the IC90 came to 2.98 µM.

Regarding `CCc1cc(Nc2nccn3c(-c4cn(CC(F)F)nc4C(F)(F)F)cnc23)ccc1C(=O)N1CC(N)C1` [Example 556, (3-aminoazetidin-1-yl)(4-((3-(1-(2,2-difluoroethyl)-3-(trifluoromethyl)-1H-pyrazol-4-yl)imidazo[1,2-a]pyrazin-8-yl)amino)-2-ethylphenyl)methanone formate], the IC90 was 0.675 µM.

For the compound `Cc1cc(Nc2nccn3c(-c4c[nH]nc4C(F)(F)F)cnc23)ccc1C(=O)N1CCN(C(=O)NCCCN)CC1` [Example 417, N-(3-aminopropyl)-4-[2-methyl-4-[[3-[3-(trifluoromethyl)-1H-pyrazol-4-yl]imidazo[1,2-a]pyrazin-8-yl]amino]benzoyl]piperazine-1-carboxamide formate], the IC90 worked out at 0.506 µM.

In the case of `N#CCn1cc(-c2cnc3c(Nc4ccc(C(=O)N5CCN(C(=O)NCC6(O)CNC6)CC5)c(Cl)c4)nccn23)c(C(F)(F)F)n1` [Example 579, 4-(2-chloro-4-((3-(1-(cyanomethyl)-3-(trifluoromethyl)-1H-pyrazol-4-yl)imidazo[1,2-a]pyrazin-8-yl)amino)benzoyl)-N-((3-hydroxyazetidin-3-yl)methyl)piperazine-1-carboxamide formate], the IC90 came to 0.538 µM.

For the compound `Cc1cc(Nc2nccn3c(-c4cn(CC#N)nc4C(F)(F)F)cnc23)ccc1C(=O)NCC(=O)N1CC[C@H](N)C1` [Example 739, N-[2-[(3S)-3-aminopyrrolidin-1-yl]-2-oxo-ethyl]-4-[[3-[1-(cyanomethyl)-3-(trifluoromethyl)pyrazol-4-yl]imidazo[1,2-a]pyrazin-8-yl]amino]-2-methyl-benzamide formate], the IC90 stood at 0.527 µM.

With `CCc1cc(Nc2nccn3c(-c4c[nH]nc4C(F)(F)F)cnc23)ccc1C(=O)NCCNC(=O)[C@H](C)N` [Example 718, (S)-N-(2-(2-aminopropanamido)ethyl)-2-ethyl-4-((3-(3-(trifluoromethyl)-1H-pyrazol-4-yl)imidazo [1,2-a]pyrazin-8-yl)amino)benzamide formate], the IC90 is 0.435 µM.

Staying with this assay, now noted: Acinetobacter baumannii, ATCC17961, 16 h, strain ATCC 17961, OD600 growth over 16 h, read-out: A. baumannii ATCC 17961 IC90.
With `Cc1cc(Nc2nccn3c(-c4c[nH]nc4C(F)(F)F)cnc23)ccc1C(=O)N1CCN(C(=O)[C@H]2CNC[C@H](O)C2)CC1` (racemic) [Example 439, [2-methyl-4-[[3-[3-(trifluoromethyl)-1H-pyrazol-4-yl]imidazo[1,2-a]pyrazin-8-yl]amino]phenyl]-[4-[rac-(3R,5R)-5-hydroxypiperidine-3-carbonyl]piperazin-1-yl]methanone hydrochloride], the IC90 amounted to 0.834 µM.

As to `C#CCn1cc(-c2cnc3c(Nc4ccc(C(=O)N[C@H](C)CN)c(CC)c4)nccn23)c(C(F)(F)F)n1` [Example 106, N-[(2R)-1-aminopropan-2-yl]-2-ethyl-4-[[3-[1-prop-2-ynyl-3-(trifluoromethyl)pyrazol-4-yl]imidazo[1,2-a]pyrazin-8-yl]amino]benzamide], the IC90 is 0.222 µM.

On to `CCc1cc(Nc2nccn3c(-c4cn(CC(F)F)nc4C(F)(F)F)cnc23)ccc1C(=O)NCCCCCN(CC(=O)O)CC1CNC1` [Example 829, 2-[azetidin-3-ylmethyl-[S-[[4-[[3-[1-(2,2-difluoroethyl)-3-(trifluoromethyl)pyrazol-4-yl]imidazo[1,2-α]pyrazin-8-yl]amino]-2-ethyl-benzoyl]amino]pentyl]amino]acetic acid; formic acid], for which the IC90 is 0.72 µM.

As to `CC1(O)CN(C(=O)c2ccc(Nc3nccn4c(-c5cn(CC#N)nc5C(F)(F)F)cnc34)cc2Cl)C1` [Example 242, 2-[4-[8-[3-chloro-4-(3-hydroxy-3-methylazetidine-1-carbonyl)anilino]imidazo[1,2-a]pyrazin-3-yl]-3-(trifluoromethyl)pyrazol-1-yl]acetonitrile], the IC90 worked out at 0.33 µM.

On to `C=CCNCCCNC(=O)c1ccc(Nc2nccn3c(-c4c[nH]nc4C(F)(F)F)cnc23)cc1CC` [Example 196, 2-ethyl-N-[3-(prop-2-enylamino)propyl]-4-[[3-[3-(trifluoromethyl)-1H-pyrazol-4-yl]imidazo[1,2-a]pyrazin-8-yl]amino]benzamide], for which the IC90 came to 0.674 µM.

`CCc1cc(Nc2nccn3c(-c4cn(CC(F)F)nc4C(F)F)cnc23)ccc1C(=O)N1CCN(C(=O)[C@H](C)N)CC1` [Example 775, (S)-2-amino-1-(4-(4-((3-(1-(2,2-difluoroethyl)-3-(difluoromethyl)-1H-pyrazol-4-yl)imidazo[1,2-a]pyrazin-8-yl)amino)-2-ethylbenzoyl)piperazin-1-yl)propan-1-one]: the IC90 amounted to 0.988 µM.

As to `C#CCn1cc(-c2cnc3c(Nc4ccc(C(=O)N5CCN(C(=O)C6CCNCC6)CC5)c(CC)c4)nccn23)c(C(F)(F)F)n1` [Example 5, [2-ethyl-4-[[3-[1-prop-2-ynyl-3-(trifluoromethyl)pyrazol-4-yl]imidazo[1,2-a]pyrazin-8-yl]amino]phenyl]-[4-(piperidine-4-carbonyl)piperazin-1-yl]methanone], the IC90 came out at 0.262 µM.

Regarding `CCc1cc(Nc2nccn3c(-c4cn(CCN)nc4C(F)(F)F)cnc23)ccc1C(=O)NC` [Example 283, 4-[[3-[1-(2-aminoethyl)-3-(trifluoromethyl)pyrazol-4-yl]imidazo[1,2-a]pyrazin-8-yl]amino]-2-ethyl-N-methylbenzamide], the IC90 was determined as 1.56 µM.

For `CCc1cc(Nc2nccn3c(-c4c[nH]nc4C(F)(F)F)cnc23)ccc1C(=O)NCCCNC(=O)[C@@H](C)NC(=O)C(F)(F)F` [Example 748, (R)-2-ethyl-N-(3-(2-(2,2,2-trifluoroacetamido)propanamido)propyl)-4-((3-(3-(trifluoromethyl)-1H-pyrazol-4-yl)imidazo[1,2-a]pyrazin-8-yl)amino) benzamide], the IC90 was determined as 0.608 µM.

Consider `CCc1cc(Nc2nccn3c(-c4c[nH]nc4C(F)(F)F)cnc23)ccc1C(=O)NCCCNC(=O)CNC(=O)C(F)(F)F` [Example 708, 2-ethyl-N-(3-(2-(2,2,2-trifluoroacetamido)acetamido)propyl)-4-((3-(3-(trifluoromethyl)-1H-pyrazol-4-yl)imidazo [1,2-a]pyrazin-8-yl)amino)benzamide], for which the IC90 was 0.397 µM.

`CCc1cc(Nc2nccn3c(-c4cn(CCF)nc4C(F)F)cnc23)ccc1C(=O)N1CCN(C(=O)CN)CC1` [Example 788, 2-amino-1-(4-(4-((3-(3-(difluoromethyl)-1-(2-fluoroethyl)-1H-pyrazol-4-yl)imidazo[1,2-a]pyrazin-8-yl)amino)-2-ethylbenzoyl)piperazin-1-yl)ethan-1-one]: the IC90 stood at 1.6 µM.

Turning to `N#CCn1cc(-c2cnc3c(Nc4ccc(C(=O)NCCNCC(=O)NCCCN)c(Cl)c4)nccn23)c(C(F)(F)F)n1` [Example 819, N-(2-((2-((3-aminopropyl)amino)-2-oxoethyl)amino)ethyl)-2-chloro-4-((3-(1-(cyanomethyl)-3-(trifluoromethyl)-1H-pyrazol-4-yl)imidazo[1,2-a]pyrazin-8-yl)amino) benzamide formate], the IC90 is 0.18 µM.

Staying with this assay, now noted: strain ATCC 17961, OD600 growth over 16 h, read-out: A. baumannii ATCC 17961 IC90.
Take `NC1CCC(NC(=O)N2CCN(C(=O)c3ccc(Nc4nccn5c(-c6c[nH]nc6C(F)(F)F)cnc45)cc3Cl)CC2)CC1` (stereo not drawn) [Example 287, N-(4-aminocyclohexyl)-4-[2-chloro-4-[[3-[3-(trifluoromethyl)-1H-pyrazol-4-yl]imidazo[1,2-a]pyrazin-8-yl]amino]benzoyl] piperazine-1-carboxamide formate]: the IC90 amounted to 0.23 µM.
